From ChEMBL document CHEMBL1811812, “Identification of a novel selective H1-antihistamine with optimized pharmacokinetic properties for clinical evaluation in the treatment of insomnia” (Bioorg Med Chem Lett, 2010) come the findings set out here.

Activity calls are given as the source filed them. No cut-off for these calls is given here.

Data set [1] is described as follows: Half life in human at […], po. It is filed as ADME, organism-based. The conditions noted are these: in vivo. Further details: route oral.
Data set [2] is described as follows: Dissociation constant, pKa of the compound.
The subject of data set [3] is Rattus norvegicus. The experiment in a line: Effect on sleep-awake cycle in EEG/EMG rat model assessed as increase in non rapid eye movement sleep at 30 mg/kg measured up to 4 hrs relative to control. It counts as functional.
Data set [4] in a line: Clearance in EEG/EMG rat model. The conditions noted are these: in vivo.
Data set [5] in a line: AUC (0 to t) in human at […], po. Further details: route oral. The conditions noted are these: plasma. It counts as ADME, organism-based.
A short description of data set [6]: Plasma concentration in human at […] after 1 hr. It is filed as ADME, organism-based.
Data set [7] is described as follows: clinical. Particulars: human, in vivo, po, 0.1 mg/kg.
Description: Half life in human at 0.1 mg/kg, po and iv administered as single dose
Data set [8] is described as follows: clinical. Particulars: human, plasma, 0.1 mg/kg.
Description: AUC (0 to t) in human at 0.1 mg/kg
A short description of data set [9]: Systemic clearance in human at […]. The conditions noted are these: in vivo. It is filed as ADME, organism-based.
The subject of data set [10] is Rattus norvegicus. The experiment in a line: Effect on sleep-awake cycle in EEG/EMG rat model assessed as latency to 1 min NREM sleep at 30 mg/kg measured up to 4 hrs relative to control. It counts as functional.
The next data set has as its target Cytochrome P450 3A4 (Homo sapiens, UniProt P08684).
Data set [11] concerns Rattus norvegicus. The experiment in a line: Effect on sleep-awake cycle in EEG/EMG rat model assessed as increase in non rapid eye movement sleep at 60 mg/kg measured up to 4 hrs relative to control. It is filed as functional.
Data set [12] concerns Rattus norvegicus. The experiment in a line: Effect on sleep-awake cycle in EEG/EMG rat model assessed as latency to 1 min NREM sleep at 60 mg/kg measured up to 4 hrs relative to control. It is filed as functional.
Data set [13] is filed under the species Homo sapiens. The experiment in a line: Toxicity in human assessed as residual effect at 1 mg to 3 mg. It counts as organism-based. The conditions noted are these: in vivo.
The species named for data set [14] is Homo sapiens. The experiment in a line: Antiinsomnic activity in human assessed as duration of sleep maintenance at 1 mg after 8 hrs. It counts as functional, organism-based.
The species named for data set [15] is Homo sapiens. In words: Antiinsomnic activity in human assessed as duration of sleep maintenance at 1 mg. It counts as functional.
Data set [16] in a line: Elimination half life in human at 50 mg by RIA. It counts as ADME, organism-based. Particulars: in vivo, read-out: beta t1/2 (converted).
The species entered for data set [17] is Homo sapiens. The experiment in a line: Selectivity for histamine H1 receptor over histamine H2 receptor in human conjuctival mast cells.
The subject of data set [18] is Rattus norvegicus. In words: Effect on sleep-awake cycle in EEG/EMG rat model assessed as latency to 1 min NREM sleep at 3 mg/kg measured up to 4 hrs relative to control. It is filed as functional.
Data set [19] concerns Rattus norvegicus. In words: Effect on sleep-awake cycle in EEG/EMG rat model assessed as increase in non rapid eye movement sleep at 3 mg/kg measured up to 4 hrs relative to control. It is filed as functional.
A short description of data set [20]: Inhibition of H2 receptor.

Sequence of Cytochrome P450 3A4 (P08684 whole entry): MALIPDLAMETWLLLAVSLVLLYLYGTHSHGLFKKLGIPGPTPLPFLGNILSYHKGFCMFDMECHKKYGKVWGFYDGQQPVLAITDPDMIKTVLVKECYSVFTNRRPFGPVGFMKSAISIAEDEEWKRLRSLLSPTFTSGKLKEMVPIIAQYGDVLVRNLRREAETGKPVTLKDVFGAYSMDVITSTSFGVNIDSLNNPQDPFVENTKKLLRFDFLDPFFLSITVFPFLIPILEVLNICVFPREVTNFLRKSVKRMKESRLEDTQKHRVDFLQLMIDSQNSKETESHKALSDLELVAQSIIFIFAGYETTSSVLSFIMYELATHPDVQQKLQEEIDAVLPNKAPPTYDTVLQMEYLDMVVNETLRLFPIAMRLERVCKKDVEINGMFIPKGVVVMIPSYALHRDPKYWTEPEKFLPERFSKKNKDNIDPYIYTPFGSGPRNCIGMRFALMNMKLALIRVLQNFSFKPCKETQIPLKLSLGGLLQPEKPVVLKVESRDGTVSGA

As usually defined, the pKa is the negative logarithm of the acid dissociation constant. A low value points to a group that gives up its proton readily. By clearance is commonly meant the volume of plasma or blood freed of the substance per unit of time. One may read the AUC(0-t) as the area under the concentration-time curve up to a stated or last time point. A high value points to more exposure. The term IC50 denotes the concentration needed to halve the response being measured. A higher IC50 goes with a need for much substance. For the compound `C[C@@H](c1ccccn1)c1c(CCN(C)C)sc2ccccc12`, the values for the half-life (in [1]; in “clinical [7]”) were 3.6 h and 6.8 h, respectively. In data set [2], the pKa was 8.5. The Activity was determined as 142% with Rattus norvegicus [3] and 124% in the data set with Rattus norvegicus [10]. For the same compound, the clearance in data set [4] is over 68 mL/min/kg; in [9] it was 3.8 mL/min/kg. The AUC(0-t) was 1.9 ng·h/mL in data set [5] and 2.8 ng·h/mL in “clinical [8]”. This compound also showed a concentration at 1 h in data set [6] of 4 ng/mL. The compound further gave an IC50 against Cytochrome P450 3A4 of over 10000 nM.

As for `C[C@H](C1=C(CCN(C)C)Cc2ccccc21)c1cnccn1`, the Activity is given as 145% with Rattus norvegicus [11] and 109% in the data set with Rattus norvegicus [12].

Turning to `CN(C)CCC=C1c2ccccc2COc2ccccc21` [DOXEPIN], in the data set listed under Homo sapiens [13], the Activity result was “Non-toxic”. Moreover, the result in the data set listed under Homo sapiens [14] was inactive. Also, in the data set listed under Homo sapiens [15], the Time stood at 8 h. Besides, the half-life in [16] is 18 h.

For `Cc1ccc(-c2nc3ccc(C)cn3c2CC(=O)N(C)C)cc1` [ZOLPIDEM], the Activity turned out to be 205% in the data set on Rattus norvegicus [3] and 17% with Rattus norvegicus [10].

As to `C[C@H](C1=C(CCN(C)C)Cc2ccccc21)c1ccccn1`, the Selectivity ratio in the data set listed under Homo sapiens [17] was determined as 100.

In the case of `CN(C)CCC1=C(Cc2cccnn2)c2ccc(F)cc2C1`, the Activity in the data set on Rattus norvegicus [18] is 106%; in the data set on Rattus norvegicus [19], 136%.

By Ki is commonly meant a measure of affinity in units of concentration, obtained from inhibition or displacement. On to `COc1nccnc1[C@H](C)C1=C(CCN(C)C)Cc2cc(F)ccc21`, for which, in data set [20], the Ki turned out to be 4.5 nM.
